Assay results as given in article PMC6767236, “Selective Cannabinoid 2 Receptor Agonists as Potential Therapeutic Drugs for the Treatment of Endotoxin-Induced Uveitis” (Molecules, 2019).

Key:
human CB2R = target: T1, human CB2R (Homo sapiens, UniProt P34972); assay: Radioligand binding assay, human CB2R ([3H]-CP55940)
T1 construct: bgal (beta-galactosidase fragment of the PathHunter system, named only in the cell line's name); host or cells: CHO-K1 (CHOK1hCB2_bgal)
Protocol: Membrane fractions were prepared from cultured CHOK1hCB1_bgal, CHOK1hCB2_bgal, and CHOK1mCB2_bgal cells (DiscoveRx, Fremont, CA, USA) as previously described. Protein concentration was determined using the Pierce bicinchoninic acid (BCA) protein assay (Rochford, IL, USA) as per the manufacturer’s instructions.
Radio ligand-binding assays were carried out as described by Souethoudt et al. (2018). Briefly, membranes from cells expressing human CB2R or CB1R or mouse CB2R and the radioligand, [^3H]-CP55940 (Perkin Elmer, Basel, Switzerland) was used. […] Membrane aliquots containing 5 µg (CHOK1hCB1_bgal) or 1 µg (CHOK1hCB2_bgal) of membrane protein in 100 µL assay buffer (50 mMTris-HCl, 5 mM MgCl2, 0.1% bovine serum albumin (BSA), pH 7.4) were incubated at 30 °C for 1 h, in presence of 3.5 nM of [^3H]-CP55940 (CHOK1hCB1_bgal) or 1.5 nM [^3H]-CP55940 (CHOK1hCB2_bgal). The incubation was terminated by rapid filtration performed on glass microfibre (GF/C) filters (Whatman International, Maidstone, UK), presoaked for 30 min with 0.25% polyethyleneimine (PEI), and using a Brandel harvester (Brandel, Gaithersburg, MD, USA). Filter-bound radioactivity was determined by scintillation spectrometry using a Tri-Carb 2900 TR liquid scintillation counter (Perkin Elmer, Boston, MA, USA). […] In all receptor binding experiments, nonspecific binding was determined in the presence of 1 µM “cold” agonist.

[1] = test system: adhesion of adoptively-transferred leukocytes in the iridial microcirculation; assay: Adoptive transfer of WT leukocytes into neutrophil-depleted CB2R-/- mice with EIU; type: in vivo; details: neutrophil-depleted CB2R-/- recipients with EIU, topical
Protocol: For adoptive transfer experiments, calcein-AM-labelled leukocytes were visualized by fluorescence (495 nm excitation) in the iridial microcirculation using a Leica DMLM epifluorescence microscope (Leica, Wetzlar, Germany) equipped with a mercury-arc light source (LEG EBQ 100, Carl Zeiss, Jena, Germany) and captured by a CCD video camera (SIT 68, DAGE MTI, Michigan, IN, USA). Videos were recorded using WinDV Capture software (Mourek, Prague, Czech Republic) and stored on an external hard drive.
During IVM animals were placed on a heating pad in a stereotactic frame, and Tear-Gel® (Novartis Pharmaceuticals Canada Inc., Dorval, QC, Canada) was applied to their cornea. The iris was divided into four equal quadrants by drawing two superficial lines on the cornea, lengthwise and widthwise. […] Two to four videos of each quadrant were recorded for 30 s each. Videos were analyzed off-line without knowledge of the treatment groups. […] Using ImageJ software (National Institute of Health, Bethesda, MD, USA) the number of adherent leukocytes within each vessel segment was calculated by measuring the diameter and length of vessel segment studied, assuming a cylindrical geometry of blood vessels. Adherent leukocytes were expressed as number of cells per mm^2 of endothelial surface. […] The number of rolling leukocytes was counted for 30 s and used to calculate the number of rolling leukocytes per min. […]

[2] = set-up: method as in earlier work; details: * previously published, cited from earlier work
mouse CB2R = mouse CB2R (Mus musculus, UniProt P47936); set-up: bgal (beta-galactosidase fragment of the PathHunter system, named only in the cell line's name); host or cells: CHO-K1 (CHOK1mCB2_bgal); details: * previously published; read-out: mouse CB2R: cAMP EC50; cited from earlier work
Chain of mouse CB2R (P47936 whole entry, the tested form may be a part): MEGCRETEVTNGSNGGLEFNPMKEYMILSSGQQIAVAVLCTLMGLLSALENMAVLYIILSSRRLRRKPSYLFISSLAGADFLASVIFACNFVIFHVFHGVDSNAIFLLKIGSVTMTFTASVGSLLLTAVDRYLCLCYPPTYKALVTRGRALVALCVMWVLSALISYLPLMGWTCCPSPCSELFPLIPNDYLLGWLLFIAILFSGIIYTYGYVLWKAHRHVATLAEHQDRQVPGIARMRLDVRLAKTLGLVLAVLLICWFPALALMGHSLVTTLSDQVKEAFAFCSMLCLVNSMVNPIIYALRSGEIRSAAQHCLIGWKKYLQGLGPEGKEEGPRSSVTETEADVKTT

T1 sequence (P34972 whole entry, the tested form may be a part): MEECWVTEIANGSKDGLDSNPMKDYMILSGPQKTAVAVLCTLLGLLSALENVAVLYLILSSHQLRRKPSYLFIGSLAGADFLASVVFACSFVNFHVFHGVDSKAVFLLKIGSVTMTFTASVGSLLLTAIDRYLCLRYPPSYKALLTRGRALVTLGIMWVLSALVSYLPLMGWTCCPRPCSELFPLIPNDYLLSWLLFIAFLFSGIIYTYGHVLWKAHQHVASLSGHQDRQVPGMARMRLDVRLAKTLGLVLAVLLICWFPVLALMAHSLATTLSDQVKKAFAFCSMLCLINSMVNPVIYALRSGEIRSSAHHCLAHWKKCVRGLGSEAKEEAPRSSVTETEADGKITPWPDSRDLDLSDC

SMILES: CC(C)(C)c1nc(N2CC[C@H](O)C2)c2nnn(Cc3nnnn3C3CC3)c2n1 [RO6871304, (3S)-1-{5-tert-butyl-3-[(1-cyclopropyl-1H-tetrazol-5-yl)methyl]-3H-[1,2, 3]triazolo[4,5-d]pyrimidin-7-yl}pyrrolidin-3-ol]
- Ki (human CB2R; [3H]-CP55940 displacement, read-out: hCB2R: Ki): 17 nM
- adhesion of adoptively-transferred leukocytes [1]: did not affect adhesion of adoptively-transferred leukocytes

SMILES: CCCCCCC(C)(C)c1cc(OC)c(C2=C[C@H]3CC[C@]2(CO)C3(C)C)c(OC)c1 [HU910, {(1S,4R)-2-[2,6-dimethoxy-4-(2-methyloctan-2-yl)phenyl]-7,7-dimethylbicyclo[2.2.1]hept-2-en-1-yl}methanol, reference compound]
- hCB1R Ki/hCB2R Ki (human CB2R): 89

SMILES: Cc1nc([C@](C)(CC2CC2)NC(=O)c2cc(OCC(F)(F)F)c(C3CC3)cn2)no1 [RO6871085, 5-Cyclopropyl-N-[(2S)-1-cyclopropyl-2-(5-methyl-1,2,4-oxadiazol-3-yl)propan-2-yl]-4-(2,2,2-trifluoroethoxy)pyridine-2-carboxamide]
- pKa (acidic, calculated) ([2]; calculated): 10.1
- pKa (basic, calculated) ([2]; calculated): 2.6
- EC50 (mouse CB2R): 3 nM

SMILES: CNC(=O)[C@@H](NC(=O)c1cc(OCC2(C)COC2)c(C2CC2)cn1)C(C)(C)C [RO6851228, 5-Cyclopropyl-N-[(2S)-3,3-dimethyl-1-(methylamino)-1-oxobutan-2-yl]-4-[(3-methyloxetan-3-yl)methoxy]pyridine-2-carboxamide]
- pKa (basic) [2]: 3.3
- EC50 (mouse CB2R): 4 nM
